Patent publication US11571418B2, “Platinum compounds that inhibit constitutive STAT3 signaling and induce cell cycle arrest and apoptosis of malignant cells” (H. LEE MOFFITT CANCER CENTER AND RESEARCH INSTITUTE, INC., priority 2011, dated 2023)

What was measured:
[1] = target: T1, inactive Stat3 monomer (Homo sapiens, UniProt P40763); assay: Inactive STAT monomer added to activated Stat3 before EMSA (titration of compound); type: binding; conditions: monomer added to activated Stat3, pre-incubated with compound 30 min
T1 construct: made in house; host or cells: Sf-9 insect cells infected with recombinant baculovirus
Text: The interaction of PLATINUM-401 with Stat3 protein is independent of the activation status of the protein.

[2] = test system: pLucSRE; assay: c-fos promoter-driven luciferase reporter assay; type: cell-based; conditions: transient transfection in mouse fibroblasts
Experimental: (§1) FIGS. 3A-3D. Inhibition of Stat3-mediated gene expression by PLATINUM-401. (FIG. 3A) and (FIG. 3B) v-Src-transformed mouse fibroblasts that stably express Stat3-dependent (NIH3T3/v-Src/pLucTKS3) and Stat3-independent (NIH3T3/v-Src/pRLSRE) luciferase reporters or β-galactosidase (β-gal), as well as normal mouse fibroblast (NIH3T3) transiently transfected with pLucTKS3, pGL2-VEGF-Luc, NFkB-Luc or pLucSRE together with or without v-Src were treated with or without PLATINUM-401 for 48 h. Cytosolic extracts were then prepared from cells for luciferase and […] activities measurements. […]
Cell proliferation and TUNEL assays—Proliferating cells were first treated with or without PLATINUM-401 for up to 48 h. A portion of cells were harvested for BrdU incorporation following the manufacturer's (BD Biosciences Pharmingen, San Diego, Calif.) instructions and analyzed by flow cytometry. Harvested cells were also analyzed for apoptosis via detection of TdT-mediated dUTP nick-end labeling (TUNEL) assay using Apoptosis Detection Systems Fluorescein according to the manufacturer's (Roche, Indianapolis, Ind.) instructions. […]
(§2) To further investigate the activities of PLATINUM-401, the inventors treated malignant cells and measured effects on Stat3 signaling. […]

[3] = test system: IL-6-induced Stat3 activation in NIH3T3; assay: IL-6-induced Stat3 activation in NIH3T3 (EMSA of nuclear extracts); type: cell-based, mouse
Experimental: as §1, with “measurements. Values are the means and S.D. of three to five independent assays; (FIG. 3C) and (FIG. 3D) Nuclear extracts or whole cell lysates were prepared from IL-6-stimulated normal mouse fibroblasts (NIH3T3) or their v-Src-transformed counterpart (NIH3T3/v-Src) that are treated with or without PLATINUM-401 for different times. Samples of equal total proteins were then subjected to in vitro DNA-binding activity and EMSA analysis or for SDS-PAGE and Western blot analysis for phosphorylated and total Stat3.” for “measurements.”
as §2

T1 sequence (P40763 whole entry): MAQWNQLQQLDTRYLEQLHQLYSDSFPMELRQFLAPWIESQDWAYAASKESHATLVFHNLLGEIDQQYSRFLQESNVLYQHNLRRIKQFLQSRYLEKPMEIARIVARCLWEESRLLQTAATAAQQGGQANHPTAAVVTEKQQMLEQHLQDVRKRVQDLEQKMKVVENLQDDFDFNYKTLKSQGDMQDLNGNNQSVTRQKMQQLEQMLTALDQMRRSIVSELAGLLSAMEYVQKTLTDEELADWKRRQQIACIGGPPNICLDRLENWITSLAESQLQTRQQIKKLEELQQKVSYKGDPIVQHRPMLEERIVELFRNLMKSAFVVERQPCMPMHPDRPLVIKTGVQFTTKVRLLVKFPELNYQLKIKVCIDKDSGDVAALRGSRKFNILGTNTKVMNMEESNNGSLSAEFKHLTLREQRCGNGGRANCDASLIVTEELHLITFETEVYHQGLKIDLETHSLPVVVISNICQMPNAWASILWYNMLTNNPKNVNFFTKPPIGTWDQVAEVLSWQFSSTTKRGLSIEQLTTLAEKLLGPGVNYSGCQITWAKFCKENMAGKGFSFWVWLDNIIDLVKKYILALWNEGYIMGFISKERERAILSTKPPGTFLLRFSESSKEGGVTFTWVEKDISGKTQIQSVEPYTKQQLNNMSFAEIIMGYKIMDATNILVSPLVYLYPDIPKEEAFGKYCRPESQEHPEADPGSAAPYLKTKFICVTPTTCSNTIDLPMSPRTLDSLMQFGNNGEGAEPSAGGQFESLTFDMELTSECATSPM

## CC(O)CN1CCN(CC(C)O)CC1 (stereo not shown) [PLATINUM-401]
[1]
  interaction with inactive Stat3 monomer: interacts
[2]
  induction of c-fos promoter-driven luciferase reporter activity: no inhibitory effects
[3]; IL-6-stimulated NIH3T3
  time at which IL-6-induced Stat3 activation was inhibited: ≤ 30 min
[3]; time- and dose-dependent
  ligand-induced activation of Stat3 DNA-binding activity: inhibits
